Measurements reported in patent publication US5942532A, “2-substituted phenyl-benzimidazole antibacterial agents” (Ortho Pharmaceutical Corporation, priority 1997, dated 1999).

The compounds below were run against T1, Kinase A and Spo0F (Bacillus subtilis, UniProt P16497) (assay: Autophosphorylation of Kinase A and Transphosphorylation of Spo0F Assay (HPK in vitro assay)). Conditions: Table 1, KinA/Spo0F phosphorylation, in µM.
T1 construct: made in house; host or cells: recombinant E. coli
T1 sequence (P16497 1-606): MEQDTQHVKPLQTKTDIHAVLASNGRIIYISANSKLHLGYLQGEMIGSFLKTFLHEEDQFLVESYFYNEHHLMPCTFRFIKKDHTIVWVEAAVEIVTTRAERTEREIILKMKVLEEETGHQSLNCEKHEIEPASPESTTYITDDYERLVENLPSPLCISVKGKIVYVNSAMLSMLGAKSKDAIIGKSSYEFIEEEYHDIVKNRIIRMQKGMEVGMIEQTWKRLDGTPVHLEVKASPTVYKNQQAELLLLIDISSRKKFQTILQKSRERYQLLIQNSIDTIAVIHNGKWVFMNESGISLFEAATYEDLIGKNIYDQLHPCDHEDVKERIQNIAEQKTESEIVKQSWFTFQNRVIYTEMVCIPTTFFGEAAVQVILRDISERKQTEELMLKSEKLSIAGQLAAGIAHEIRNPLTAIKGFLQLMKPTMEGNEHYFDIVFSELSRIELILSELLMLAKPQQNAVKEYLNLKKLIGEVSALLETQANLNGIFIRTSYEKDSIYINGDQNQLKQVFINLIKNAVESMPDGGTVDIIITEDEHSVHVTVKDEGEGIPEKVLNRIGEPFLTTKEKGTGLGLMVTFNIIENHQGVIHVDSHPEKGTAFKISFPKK
Type: biochemical
Protocol: Autophosphorylation of Kinase A and Transphosphorylation of Spo0F Assay
To study the effect of the compounds of the present invention on the signal transduction process in bacteria, the inhibiting effect of the compounds on the sporulation operon proteins Kinase A and Spo0F was examined. Specifically, the inhibition of autophosphorylation of Kinase A and the transphosphorylation of Spo0F was determined in the following assays. The Spo0F response regulator is the primary substrate for phosphorylation by the protein kinase, Kin A, involved in the sporulation process in bacteria. See D. Burbulys, K. A. Trach, J. A. Hoch, Cell, 64, 545-552 (1991). Spo0F and KinA were prepared from recombinant E. coli overexpressing the proteins (J. Cavanagh et al, Amino Acids, 6, 131-140 (1994) and references therein).
The following stock reagents were either prepared and used promptly or stored at the indicated temperature:
8×Salts: 2 M KCl (5 mL), 1 M MgCl2 (800 mL), 1 M CaCl2 (100 mL), 10 mg/mL phenylmethylsulfonyl fluoride (200 mL), 1 M dithioreitol (50 mL), 0.25 M Na2 EDTA (32 mL) and H2 O 3.82 mL (-20° C.)
5×Loading Dye: 0.5M TRIS-HCl, pH 6.8 (7.5 mL), 10% SDS (2 mL) 0.1% bromophenol blue (0.5 mL), 100% glycerol (3 mL) and 12.5 M 2-mercaptoethanol (0.3 mL)
1-1.3 mg/mL KinA: 15 mM TRIS-HCl, pH 8.0, 6 mM KCl; 4 mM 2-mercaptoethanol;40% glycerol (-20° C.)
1 mg/mL Spo0F: 17.5 mM TRIS-HCl, pH 8.0; 0.7 mM KCl; 0.7 mM MgCl2; 0.7 mM CaCl2; 5 mM 2-mercaptoethanol; 30% glycerol (-20° C.)
5% Stacking Gel: 40% 29:1 acrylamide:bis acrylamide (1.25 mL), 0.5 M TRIS-HCl, pH 6.8 (2.5 mL), 10% SDS (0.1 mL), D-H2 O (6.15 mL) 10% ammonium persulfate (100 mL) and TEMED (25 mL)
SDS Running Buffer: TRIS-BASE (3.02 g), glycine (14.4 g), SDS (1 g), D-H2 O (to 1 L)
The reaction mixture was prepared from 8×Salts (87 μL), 1M TRIS, pH 8 (118 μL), 50% glycerol (63 μL), Spo0F (14.1 μL) and KinA (7.0 μL). Microcentrifuge tubes were charged with the reaction mixture (18.5 μL) and a 1.0 mM solution of the test compound in 5% DMSO (18.5 μL), and incubated for 15 min on ice. 100 mM ATP solution (3.0 μl, containing 625 μCi [^32 P]ATP) was added, and the mixture left for 10 minutes at room temperature. The reaction was quenched with 5× loading dye (10 μL per tube) and the samples were loaded on a prepared 5% Stacking Gel, or stored on dry ice until ready for use. The prepared wells were filled with SDS Running Buffer, samples were loaded into the wells, and 80 volts were applied to the gel until the dye front reached the bottom of the stacking gel. The voltage was then increased to 250 volts until electrophoresis was complete. Radioactive bands in the gel corresponding to phosphorylated KinA and Spo0F were imaged and quantitated with a phosphoimager.
If either enzyme was inhibited (as evidenced by the absence of labelled protein in the developed gel), an IC50 was calculated by running the assay with a range of inhibitor concentrations from 1 to 500 μM. After electrophoresis of the reaction mixtures, percent inhibition was determined by measuring the concentration of radioactive phosphorus with a phosphoimager and calculating the values using a software program (BioRad Molecular Analyst).

IC50 | SMILES
8.5 | CC(C)(C)c1cc(-c2nc3ccc(C(=N)N)cc3[nH]2)c(O)c(C(C)(C)C)c1 [Example 30]
30.8 | N=C(N)c1ccc2nc(-c3cc(I)cc(I)c3O)[nH]c2c1 [Example 31]
51.1 | N=C(N)c1ccc2nc(-c3cc(Br)cc(Br)c3O)[nH]c2c1 [Example 32]
4 | CC(C)(C)c1cccc(-c2nc3ccc(C(=N)N)cc3[nH]2)c1O [Example 34]
155 | N=C(N)c1ccc2nc(-c3cc(Cl)cc(Cl)c3O)[nH]c2c1 [Example 36]
171 | COc1cc(Br)c(O)c(-c2nc3ccc(C(=N)N)cc3[nH]2)c1 [Example 37]
23 | N=C(N)c1ccc2nc(-c3cc(-c4ccccc4)cc(-c4ccccc4)c3O)[nH]c2c1 [Example 39]
199 | N=C(N)c1ccc2nc(-c3cc([N+](=O)[O-])cc(Br)c3O)[nH]c2c1 [Example 40]
199 | CC(C)(C)c1cc(-c2nc3ccc(C(=N)N)cc3[nH]2)c(OCC(=O)O)c(C(C)(C)C)c1 [Example 42]
40.2 | CC(C)(C)c1csc(-c2ccc(-c3nc4ccc(C(=N)N)cc4[nH]3)cc2)n1 [Example 43]

Continued, compound first:

SMILES | IC50
N=C(N)c1ccc2nc(-c3ccc(-c4ccccc4)cc3)[nH]c2c1 [Example 2] | 86
N=C(N)c1ccc2nc(-c3ccc(C(F)(F)F)cc3)[nH]c2c1 [Example 3] | 169
N=C(N)c1ccc2nc(-c3ccc(N(c4ccccc4)c4ccccc4)cc3)[nH]c2c1 [Example 5] | 17.4
N=C(N)c1ccc2nc(-c3cc(OCc4ccccc4)cc(OCc4ccccc4)c3)[nH]c2c1 [Example 6] | 15.9
N=C(N)c1ccc2nc(-c3cc(C(F)(F)F)cc(C(F)(F)F)c3)[nH]c2c1 [Example 7] | 30.8
CCC(C)(C)c1ccc(-c2nc3ccc(C(=N)N)cc3[nH]2)cc1 [Example 8] | 37.6
CC(C)(C)c1cc(-c2nc3ccc(C(=N)N)cc3[nH]2)cc(C(C)(C)C)c1O [Example 9] | 75.9
CC(C)(C)c1ccc(-c2nc3ccc(C(=N)N)cc3[nH]2)cc1 [Example 10] | 70.6
N=C(N)c1ccc2nc(-c3ccc(OCc4ccc([N+](=O)[O-])cc4)cc3)[nH]c2c1 [Example 11] | 19.4
CCCCCCCCCCOc1ccc(-c2nc3ccc(C(=N)N)cc3[nH]2)cc1OCCCCCCCCCC [Example 12] | 8.3
N=C(N)c1ccc2nc(-c3ccc(C=Cc4ccccc4)cc3)[nH]c2c1 [Example 13] | 21.5
CCCCN(CCCC)c1ccc(-c2nc3ccc(C(=N)N)cc3[nH]2)cc1 [Example 14] | 35.5
N=C(N)c1ccc2nc(-c3ccc(OCc4ccccc4)cc3)[nH]c2c1 [Example 15] | 60.8
N=C(N)c1ccc2nc(-c3ccc(OCc4ccccc4)c(OCc4ccccc4)c3)[nH]c2c1 [Example 16] | 50.7
N=C(N)c1ccc2nc(-c3ccc(F)cc3)[nH]c2c1 [Example 17] | 480
N=C(N)c1ccc2nc(-c3cc(I)c(O)c(I)c3)[nH]c2c1 [Example 18] | 254
N=C(N)c1ccc2nc(-c3cc(Cl)cc(Cl)c3)[nH]c2c1 [Example 19] | 100
CC(C)(C)c1cc(-c2nc3ccc(C(=N)N)cc3[nH]2)cc(C(C)(C)C)c1 [Example 20] | 19
N=C(N)c1ccc2nc(-c3cc(-c4ccccc4)cc(-c4ccccc4)c3)[nH]c2c1 [Example 21] | 31
N=C(N)c1ccc2nc(-c3ccc(NCc4ccccc4)cc3)[nH]c2c1 [Example 22] | 222
CC(C)(C)c1cc(-c2nc3ccc(C(=N)N)cc3[nH]2)ccc1O [Example 23] | 22
N#CCCN(CCC#N)c1ccc(-c2nc3ccc(C(=N)N)cc3[nH]2)cc1 [Example 25] | 35.6
N=C(N)c1ccc2nc(-c3ccc(N(Cc4ccccc4)Cc4ccccc4)cc3)[nH]c2c1 [Example 26] | 17
COc1cc(OC)c(-c2nc3ccc(C(=N)N)cc3[nH]2)cc1Br [Example 28] | 66
N=C(N)c1ccc2nc(-c3cc([N+](=O)[O-])cc([N+](=O)[O-])c3O)[nH]c2c1 [Example 33] | 74.7
CCN(CC)c1ccc(-c2nc3ccc(C(=N)N)cc3[nH]2)c(O)c1 [Example 38] | 51
N=C(N)c1ccc2nc(-c3ccc(Oc4c([N+](=O)[O-])cc(C(F)(F)F)cc4[N+](=O)[O-])cc3)[nH]c2c1 [Example 45] | 28

Same assay, conditions: Table 1, KinA/Spo0F phosphorylation, read-out: IC50

SMILES | IC50
CC(C)c1ccc(-c2nc3ccc(C(=N)N)cc3[nH]2)cc1 [Example 4] | 219 µM
N=C(N)c1ccc2nc(-c3ccccc3O)[nH]c2c1 [Example 27] | 465 µM
COc1c(-c2nc3ccc(C(=N)N)cc3[nH]2)cc(C(C)(C)C)cc1C(C)(C)C [Example 29] | 76 µM
CC(C)(C)c1ccc(O)c(-c2nc3ccc(C(=N)N)cc3[nH]2)c1 [Example 35] | 64 µM

Same assay, conditions: Table 2, KinA/Spo0F phosphorylation, in µM

SMILES | IC50
Cn1c(-c2ccc(Oc3ccccc3)cc2)nc2ccc(C(=N)N)cc21 [Example 46] | 44
N=C(N)c1ccc(Oc2ccc(-c3nc4ccc(C(=N)N)cc4[nH]3)cc2)cc1 [Example 47] | 131
N=C(N)c1ccc2nc(-c3ccc(Oc4ccc(Cl)cc4[N+](=O)[O-])cc3)[nH]c2c1 [Example 49] | 29.2
N=C(N)c1ccc2nc(-c3ccc(Oc4ccc([N+](=O)[O-])cc4)cc3)[nH]c2c1 [Example 50] | 31.7
N=C(N)c1ccc2nc(-c3ccc(Oc4ccc(N)cc4)cc3)[nH]c2c1 [Example 51] | 140.6
CCOC(=O)c1ccc(Oc2ccc(-c3nc4ccc(C(=N)N)cc4[nH]3)cc2)cc1 [Example 52] | 56
COc1cc(Oc2ccc(-c3nc4ccc(C(=N)N)cc4[nH]3)cc2)cc(OC)c1OC [Example 53] | 28.7
COc1ccc(Oc2ccc(-c3nc4ccc(C(=N)N)cc4[nH]3)cc2)cc1 [Example 54] | 17.7
COc1cc(OC)cc(Oc2ccc(-c3nc4ccc(C(=N)N)cc4[nH]3)cc2)c1 [Example 55] | 59.2
CC(C)(C)c1ccc(Oc2ccc(-c3nc4ccc(C(=N)N)cc4[nH]3)cc2)cc1 [Example 56] | 66.5
N=C(N)c1ccc2nc(-c3ccc(Oc4ccc([N+](=O)[O-])c([N+](=O)[O-])c4)cc3)[nH]c2c1 [Example 57] | 31.6
N=C(N)c1ccc2[nH]c(-c3ccc(Oc4ccc(N)c(N)c4)cc3)nc2c1 [Example 58] | 31.5
N=C(N)c1ccc2[nH]c(-c3ccc(Oc4ccc(Cl)cc4)cc3)nc2c1 [Example 59] | 13.9

Same assay, conditions: Table 2, KinA/Spo0F phosphorylation, read-out: IC50

SMILES | IC50
N=C(N)c1ccc2nc(-c3ccc(Oc4ccccc4)cc3)[nH]c2c1 [Example 48] | 42 µM
